Experiment [1] deals with fetal hemoglobin gene HBG1. In words: HBG1 Nanostring Assay in CD34+ HSPC erythroid differentiation culture. Format: cell-based, human. The note with it: for Nanostring Ymax obs (%): relative to a control compound (C1); for EC50: Homo sapiens, 240 h, HBG1 induction, Day10 of erythroid differentiation. The method, then:
A Nanostring Assay was performed to evaluate the ability of the compounds to induce expression of the fetal hemoglobin gene HBG1 in cells. The data are shown as EC50, with stronger inducers having a lower EC50 value and higher YMax.
Forty eight hours later (day −2), the cells were passaged at a density of 200,000 cells/ml (100 ul/well in 96well culture plate) in complete expantion media. The cells were plated at 200,000 cells/ml on day 0 and day 3, 400,000 cells/ml on day 5 in phase 1 erythroid differentiation containing StemSpan with 2.5 U/mL of EPO (R&D systems, 287-TC-500), 0.5 mg/mL of Holo-Transferrin (Sigma, T0665-500MG), 1× Glutamine (Gluta-Max) (Gibco, 35050-061), 5 μL/mL Lipid Mixture (Sigma, L0288-100ML), 50 ng/mL SCF (R&D Systems, 255-SV-050), 10 ng/mL IL-3 (R&D Systems, 203-IL010) and 10 ng/mL Insulin (Sigma, I9278-5ML) all 200 μl per well in 96 well culture plate. Cells were then passaged at 500,000 cells/ml and 200 μl per well on day 7 in phase 2 Erythroid differentiation (Phase 1 erythroid differentiation removing IL-3) until collection day (Day10). The culture conditions were used for both control DMSO as well as experimental treatments.
For all cell pasagings, cells were centrifuged at 300 g for 8 minutes at room temperature and cell number were normalized by MANTIS and Integra VIAFLO 384. All the compounds are diluted in DMSO and added to complete media by Formulatrix FAST and mixed starting from day −2. Cells were counted by Luna cell counter with AOPI Staining Solution (Nexcelom Bioscience, CS2-0106-25 mL) on day-2. Cells were counted by BD FACSCelesta Flow Cytometer with CountBright™ Plus Absolute Counting Beads (Thermal Fisher Scientific, C36995) and SYTOX AADvanced™ Ready Flow™ Reagent (Invitrogen, R37173) for other passages. Cells were cultured at 37° C. and 5% CO2. DMSO concentration was kept at 0.1% to minimize any effects to the cells by the vehicle. […] Compound plates were kept at room temperature to protect from light to avoid multiple freeze and thaw cycle.
On the collection day (Day10), 100K cells were collected and stored at −80° C. For direct hybridization for Nanostring, 100K cell pellet was lyzed in 25 μL of RLT (QIAGEN, 79216) with 1×β-Mercaptoethanol (Gibco, 21985-023) and shaked at 300-500 RPM for 5 minutes at room temperature. Cell lysate was stored in −80° C. after lysis.
All hybridizations were done in a total volume of 15 μL (3 μL of RNA lysate added to master mix of 12 μL probe A/B, capture probe/reporter probes, proteinase K and attenuation oligos suspended in hybridization buffer). Samples were hybridized at 67° C. for 22 hr. Following hybridization, the tripartide complexes were purified, immobilized by nCounter Prep Station and imaged by Digital Analyzer (nCounter MAX/FLEX Analysis System), to generate digital counts of barcodes corresponding to each target in the multiplexed reaction. Labeled barcodes obtained from unamplified extracts were counted at 555 images or field of view (FOV). The barcode counts for each sample were recorded in Reporter Code Count (RCC) files that are imported into nSolver analysis software (provided with CodeSet by NS) for quality control evaluation.
The quality control (QC) metric included limit of detection QC by checking for wells with less than 100 total counts for positive controls.
Hybridization signals were normalized against the ERCC positive controls and CodeSet Content (housekeeping gene). Briefly, this involved first calculating a sample-specific scaling factor by calculating arithmetic mean of geomeans of all ERCC positive controls with counts more than zero in all samples. Then this arithmetic mean was divided by the geometric mean of each lane to generate a lane-specific normalization factor. All negative controls and target-specific signal values were then normalized by multiplying counts values with their sample-specific scaling factor. The acceptable range for scaling factors is 0.3-3.0. […]

Experiment [2] relates to Cullin-3 (CUL3) neddylation. In words: AlphaLISA assay for Cullin-3 (CUL3) neddylation in TF 1 cells. The note with it: Homo sapiens, TF-1, 3 h, 3 hours treatment. Format: cell-based. In a few lines:
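TF 1 cells in unsupplemented IMDM treated with compound concentrations for 3 h, then lysed. CUL3 neddylation detected by AlphaLISA (biotinylated anti-NEDD8, anti-CUL3 acceptor beads overnight, streptavidin donor beads 1 h); normalized to vehicle (0%) and 1 μM DI-1548 (100%), IC50 from Hill fits.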
In general terms: Bead proximity is the source of the signal in Alpha formats.

For experiment [3], the target named is DCN1 (DCUND1) protein PONY domain (Homo sapiens (Human), UniProt Q96GG9). In words: TR-FRET assay, DCN1 binding with FAM-labeled probe. In short, it runs like this: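 First, the E. coli-derived PONY domain was biotinylated and paired with streptavidin Tb cryptate. Compounds in 0.1% DMSO were then added to DCN1 and FAM-probe (5 nM/20 nM, or 0.31 nM/900 nM total with 800 nM unlabelled) in TritonX, 200 mM NaCl buffer. Finally, TR-FRET ratios were recorded at 1, 5 and 24 hrs.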
On the technique in general: Time-resolved FRET reads energy transfer from a long-lived donor to a nearby acceptor.

Setting [4] is: 24 hr after treatment with compound, read-out: TR FRET IC50 24 hr.
Where [5] appears, read: read-out: TR FRET IC50 1 hr, 1 hr after treatment with compound.
[6] abbreviates: TR FRET IC50 1 hr (nM), 1 hr after treatment with compound.

Read-outs that look alike come from different tables or passages of the source.

DCN1 (DCUND1) protein PONY domain, sequence (Q96GG9 60-248): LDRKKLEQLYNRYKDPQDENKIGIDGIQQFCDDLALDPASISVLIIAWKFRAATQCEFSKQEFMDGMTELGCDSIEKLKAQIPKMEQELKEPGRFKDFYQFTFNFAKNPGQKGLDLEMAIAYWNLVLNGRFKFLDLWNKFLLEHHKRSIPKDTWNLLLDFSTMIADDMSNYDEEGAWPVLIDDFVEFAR

In general, IC50 refers to the midpoint of a concentration-inhibition curve. Turning to `C=C(CN1CC2(CCC2O)C1)C(=O)NCc1nn(-c2ccccc2)c2c1[C@H](c1ccc(F)cc1)[C@H](NC(=O)c1cccc(C(F)(F)F)c1)C(=O)N2CC` (mixture of isomers) [Compound I-458], the “Nanostring Ymax obs (%)” value in experiment [1] was “++ (Nanostring Ymax greater than 50.0 and less than or equal to 100.0)”. For the same compound, the IC50 in experiment [2] is ≤ 100 nM; in experiment [3] (setting [4]), ≤ 200 nM; in experiment [3] (setting [5]), ≤ 200 nM.

In the case of `C=C(CN1CC2(CCO2)C1)C(=O)NCc1nn(-c2ccccc2)c2c1[C@H](c1ccc(F)cc1)[C@H](NC(=O)c1cccc(C(F)(F)F)c1)C(=O)N2CC` [Compound I-407], the “Nanostring Ymax obs (%)” value in experiment [1] was “+ (Nanostring Ymax greater than or equal to 0.0 and less than or equal to 50.0)”. The values for the IC50 in experiment [2], in experiment [3] (setting [4]) and in experiment [3] (setting [5]) were ≤ 100 nM, ≤ 200 nM and ≤ 200 nM, respectively.

`C=C(CN1CCC1)C(=O)NCc1nn(-c2ccccc2)c2c1[C@H](c1ccc(F)cc1)[C@H](NC(=O)c1cccc(C(F)(F)F)c1)C(=O)N2CC` [Compound I-2]: the “Nanostring Ymax obs (%)” value in experiment [1] is “++ (Nanostring Ymax greater than 50.0 and less than or equal to 100.0)”. The IC50 in experiment [2] is ≤ 100 nM; in experiment [3] (setting [4]) it was ≤ 200 nM; in experiment [3] (setting [5]) it was ≤ 200 nM.

The EC50 is the concentration at which the effect is half-maximal. Read a low EC50 as higher potency in that assay. Turning to `CCN1C(=O)[C@@H](NC(=O)c2cccc(C(F)(F)F)c2)[C@@H](c2ccc(F)cc2)c2c([C@H](CCO)NC#N)nn(-c3ccccc3)c21` (mixture of isomers) [Compound I-576], the EC50 in experiment [1] is > 1000 nM. Besides, the “Nanostring Ymax obs (%)” value in experiment [1] was “+ (Nanostring Ymax greater than or equal to 0.0 and less than or equal to 50.0)”. For the same compound, the IC50 in experiment [2] is ≤ 100 nM; in experiment [3] (setting [4]), ≤ 200 nM; in experiment [3] (setting [6]) it was 200 to 1000 nM.

`C=C(CN1CC2CCC1CO2)C(=O)NCc1nn(-c2ccccc2)c2c1[C@H](c1ccc(F)cc1)[C@H](NC(=O)c1cccc(C(F)(F)F)c1)C(=O)N2CC` (mixture of isomers) [Compound I-447]: in experiment [1], the EC50 was ≤ 100 nM. Also, the “Nanostring Ymax obs (%)” value in experiment [1] is given as “+++ (Nanostring Ymax greater than 100.0)”. Further, the IC50 in experiment [2] is ≤ 100 nM; in experiment [3] (setting [4]), ≤ 200 nM; in experiment [3] (setting [5]), ≤ 200 nM.

In the case of `CCN1C(=O)[C@@H](NC(=O)c2cccc(C(F)(F)F)c2)[C@@H](c2ccc(F)cc2)c2c(CNC/C=C/C(=O)OC)nn(-c3ccccc3)c21` (racemic) [Compound I-127, rac-methyl I-4-((((4R,5R)-7-ethyl-4-(4-fluorophenyl)-6-oxo-1-phenyl-5-(3-(trifluoromethyl)benzamido)-4,5,6,7-tetrahydro-1H-pyrazolo[3,4-b]pyridine-3-yl)methyl)amino)but-2-enoate], in experiment [1], the EC50 lay within 100 to 1000 nM. In experiment [1], the “Nanostring Ymax obs (%)” value was “++ (Nanostring Ymax greater than 50.0 and less than or equal to 100.0)”. The IC50 in experiment [2] is ≤ 100 nM; in experiment [3] (setting [4]) it was ≤ 200 nM; in experiment [3] (setting [6]) it was ≤ 200 nM.

Turning to `CCN1C(=O)[C@H](NC(=O)c2cccc(C(F)(F)F)c2)[C@@H](c2ccc(F)cc2)c2c([C@@H](C)NC#N)nn(-c3ccccc3)c21` [Compound I-637], in experiment [1], the “Nanostring Ymax obs (%)” value is “+ (Nanostring Ymax greater than or equal to 0.0 and less than or equal to 50.0)”. For the same compound, the IC50 in experiment [2] is > 1000 nM; in experiment [3] (setting [4]), 200 to 1000 nM; in experiment [3] (setting [6]) it was 1000 to 3000 nM.

With `C=C(CN(C)C1COC1)C(=O)NCc1nn(-c2ccccc2)c2c1[C@@H](c1ccc(F)cc1)[C@H](NC(=O)c1cccc(C(F)(F)F)c1)C(=O)N2CC` (racemic) [Compound I-491], the EC50 in experiment [1] was ≤ 100 nM. In addition, in experiment [1], the “Nanostring Ymax obs (%)” value was “++ (Nanostring Ymax greater than 50.0 and less than or equal to 100.0)”. The IC50 in experiment [2] is ≤ 100 nM; in experiment [3] (setting [4]) it was ≤ 200 nM; in experiment [3] (setting [6]) it was 200 to 1000 nM.

For `C=C(CN1C2COCC1C2)C(=O)NCc1nn(-c2ccccc2)c2c1[C@H](c1ccc(F)cc1)[C@H](NC(=O)c1cccc(C(F)(F)F)c1)C(=O)N2CC` (mixture of isomers) [Compound I-573], the “Nanostring Ymax obs (%)” value in experiment [1] was “++ (Nanostring Ymax greater than 50.0 and less than or equal to 100.0)”. In addition, the IC50 in experiment [2] is ≤ 100 nM; in experiment [3] (setting [4]), ≤ 200 nM; in experiment [3] (setting [5]), ≤ 200 nM.

`C=C(CN1CCCC1)C(=O)NCc1nn(-c2ccccc2)c2c1[C@H](c1ccc(F)cc1)[C@H](NC(=O)c1cccc(C(F)(F)F)c1)C(=O)N2CC` [Compound I-612]: the “Nanostring Ymax obs (%)” value in experiment [1] was “++ (Nanostring Ymax greater than 50.0 and less than or equal to 100.0)”. Moreover, the IC50 is ≤ 100 nM in experiment [2], ≤ 200 nM in experiment [3] (setting [4]) and ≤ 200 nM in experiment [3] (setting [5]).

As to `C=C(C(=O)NCc1nn(-c2ccccc2)c2c1[C@H](c1ccc(F)cc1)[C@H](NC(=O)c1cccc(C(F)(F)F)c1)C(=O)N2CC)C(C)N1CCOCC1` (mixture of isomers) [Compound I-89], the “Nanostring Ymax obs (%)” value in experiment [1] was “++ (Nanostring Ymax greater than 50.0 and less than or equal to 100.0)”. Besides, the IC50 in experiment [2] was ≤ 100 nM; in experiment [3] (setting [4]), ≤ 200 nM; in experiment [3] (setting [5]), ≤ 200 nM.

As to `CCN1C(=O)[C@@H](NC(=O)c2cccc(C(F)(F)F)c2)[C@@H](c2ccc(F)cc2)c2c(CN(C)C/C=C/C(=O)OC)nn(-c3ccccc3)c21` (racemic) [Compound I-250, rac-methyl I-4-((((4R,5R)-7-ethyl-4-(4-fluorophenyl)-6-oxo-1-phenyl-5-(3-(trifluoromethyl)benzamido)-4,5,6,7-tetrahydro-1H-pyrazolo[3,4-b]pyridine-3-yl)methyl)(methyl)amino)but-2-enoate], the EC50 in experiment [1] is > 1000 nM. The “Nanostring Ymax obs (%)” value in experiment [1] was “++ (Nanostring Ymax greater than 50.0 and less than or equal to 100.0)”. Moreover, the IC50 in experiment [2] is ≤ 100 nM; in experiment [3] (setting [4]), ≤ 200 nM; in experiment [3] (setting [6]) it was 200 to 1000 nM.

Take `C=C(CN1CC2CC1C2)C(=O)NCc1nn(-c2ccccc2)c2c1[C@H](c1ccc(F)cc1)[C@H](NC(=O)c1cccc(C(F)(F)F)c1)C(=O)N2CC` (mixture of isomers) [Compound I-456]: the “Nanostring Ymax obs (%)” value in experiment [1] was “++ (Nanostring Ymax greater than 50.0 and less than or equal to 100.0)”. For the same compound, the IC50 in experiment [2] is ≤ 100 nM; in experiment [3] (setting [4]), ≤ 200 nM; in experiment [3] (setting [5]) it was ≤ 200 nM.

The values are drawn from patent publication US20250163057A1, “DCN-1 MODULATING COMPOUNDS AND METHODS OF USE THEREOF” (Cellarity, Inc., priority 2023, published 2025).
